{"source": "PubChem BioAssay AID328", "about": "(DTP/NCI, 2004)", "test_system": "BDF1 mice, P388 leukemia ip, median survival T/C", "assay": "NCI In Vivo Anticancer Drug Screen. Data for tumor model P388 Leukemia (intraperitoneal) in B6D2F1 (BDF1) mice", "settings": "endpoint: median survival time, higher = longer survival", "outline": "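Compound-treated tumour-bearing mice were compared with vehicle-treated controls. Survival was recorded, and the value is the treated-group measurement divided by the control-group measurement (T/C).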", "note": "Several values for one entry are separate records, joined by “and”; a condition that tells them apart may be missing. Equal values may be shown once. Toxic doses and inconclusive results are not listed.", "data": [{"smiles": "COc1cccc2c1C(=O)c1c(O)c3c(c(O)c1C2=O)C[C@@](O)(C(C)=O)C[C@@H]3OC1CC(N)C(O)C(C)O1", "note": "(stereo partly specified)", "values": [{"measurement": "T/C", "setting": "dose: 0.03 mg/kg/injection, schedule: Q01DX010 (ip), vehicle: saline", "value": "108 % of control"}, {"measurement": "T/C", "setting": "dose: 0.06 mg/kg/injection, schedule: Q## X020 (ip), vehicle: saline", "value": "108 % of control"}, {"measurement": "T/C", "setting": "dose: 0.13 mg/kg/injection, schedule: Q01DX010 (ip), vehicle: saline", "value": "150 % of control"}, {"measurement": "T/C", "setting": "dose: 0.13 mg/kg/injection, schedule: Q03HX024 (ip), vehicle: saline", "value": "200 % of control"}, {"measurement": "T/C", "setting": "dose: 0.13 mg/kg/injection, schedule: Q## X020 (ip), vehicle: saline", "value": "100 % of control"}, {"measurement": "T/C", "setting": "dose: 0.21 mg/kg/injection, schedule: Q03HX024 (ip), vehicle: saline", "value": "210 % of control"}, {"measurement": "T/C", "setting": "dose: 0.21 mg/kg/injection, schedule: Q## X010 (ip), vehicle: saline", "value": "190 % of control"}, {"measurement": "T/C", "setting": "dose: 0.21 mg/kg/injection, schedule: Q## X020 (ip), vehicle: saline", "value": "195 % of control"}, {"measurement": "T/C", "setting": "dose: 0.25 mg/kg/injection, schedule: Q01DX009 (ip), vehicle: saline", "value": "208 % of control"}, {"measurement": "T/C", "setting": "dose: 0.25 mg/kg/injection, schedule: Q01DX010 (ip), vehicle: clinical formulation", "value": "159 % of control"}, {"measurement": "T/C", "setting": "dose: 0.36 mg/kg/injection, schedule: Q03HX024 (ip), vehicle: saline", "value": "205 % of control"}, {"measurement": "T/C", "setting": "dose: 0.36 mg/kg/injection, schedule: Q04DX003 (ip), vehicle: saline", "value": "180 % of control"}, {"measurement": "T/C", "setting": "dose: 0.36 mg/kg/injection, schedule: Q## X020 (ip), vehicle: saline", "value": "200 % of control"}, {"measurement": "T/C", "setting": "dose: 0.38 mg/kg/injection, schedule: Q01DX010 (ip), vehicle: saline", "value": "189 % of control"}, {"measurement": "T/C", "setting": "dose: 0.5 mg/kg/injection, schedule: Q01DX009 (ip), vehicle: saline", "value": "170 % of control"}, {"measurement": "T/C", "setting": "dose: 0.5 mg/kg/injection, schedule: Q01DX010 (ip), vehicle: clinical formulation", "value": "168 % of control"}, {"measurement": "T/C", "setting": "dose: 0.5 mg/kg/injection, schedule: Q01DX010 (ip), vehicle: water", "value": "175 % of control"}, {"measurement": "T/C", "setting": "dose: 0.5 mg/kg/injection, schedule: Q03HX008 (ip), vehicle: water", "value": "181 % of control"}, {"measurement": "T/C", "setting": "dose: 0.5 mg/kg/injection, schedule: Q06HX004 (ip), vehicle: water", "value": "190 % of control"}, {"measurement": "T/C", "setting": "dose: 0.5 mg/kg/injection, schedule: Q## X020 (ip), vehicle: saline", "value": "100 % of control and 207 % of control"}, {"measurement": "T/C", "setting": "dose: 0.6 mg/kg/injection, schedule: Q03HX024 (ip), vehicle: saline", "value": "235 % of control"}, {"measurement": "T/C", "setting": "dose: 0.6 mg/kg/injection, schedule: Q04DX003 (ip), vehicle: saline", "value": "215 % of control"}, {"measurement": "T/C", "setting": "dose: 0.6 mg/kg/injection, schedule: Q## X010 (ip), vehicle: saline", "value": "210 % of control"}, {"measurement": "T/C", "setting": "dose: 0.6 mg/kg/injection, schedule: Q## X020 (ip), vehicle: saline", "value": "190 % of control"}, {"measurement": "T/C", "setting": "dose: 0.63 mg/kg/injection, schedule: Q01DX010 (ip), vehicle: saline", "value": "195 % of control and 200 % of control"}, {"measurement": "T/C", "setting": "dose: 0.75 mg/kg/injection, schedule: Q01DX010 (ip), vehicle: saline", "value": "205 % of control"}, {"measurement": "T/C", "setting": "dose: 0.78 mg/kg/injection, schedule: Q04DX002 (ip), vehicle: saline", "value": "172 % of control"}, {"measurement": "T/C", "setting": "dose: 1.0 mg/kg/injection, schedule: Q01DX009 (ip), vehicle: saline", "value": "108 % of control"}, {"measurement": "T/C", "setting": "dose: 1.0 mg/kg/injection, schedule: Q01DX010 (ip), vehicle: clinical formulation", "value": "163 % of control"}, {"measurement": "T/C", "setting": "dose: 1.0 mg/kg/injection, schedule: Q01DX010 (ip), vehicle: water", "value": "195 % of control"}, {"measurement": "T/C", "setting": "dose: 1.0 mg/kg/injection, schedule: Q03HX008 (ip), vehicle: water", "value": "204 % of control"}, {"measurement": "T/C", "setting": "dose: 1.0 mg/kg/injection, schedule: Q03HX024 (ip), vehicle: saline", "value": "115 % of control"}, {"measurement": "T/C", "setting": "dose: 1.0 mg/kg/injection, schedule: Q04DX003 (ip), vehicle: water", "value": "115 % of control"}, {"measurement": "T/C", "setting": "dose: 1.0 mg/kg/injection, schedule: Q06HX004 (ip), vehicle: water", "value": "190 % of control"}, {"measurement": "T/C", "setting": "dose: 1.0 mg/kg/injection, schedule: Q## X010 (ip), vehicle: saline", "value": "200 % of control"}, {"measurement": "T/C", "setting": "dose: 1.0 mg/kg/injection, schedule: Q## X020 (ip), vehicle: saline", "value": "287 % of control and 108 % of control and 209 % of control"}, {"measurement": "T/C", "setting": "dose: 1.25 mg/kg/injection, schedule: Q01DX009 (ip), vehicle: water", "value": "176 % of control"}, {"measurement": "T/C", "setting": "dose: 1.25 mg/kg/injection, schedule: Q01DX010 (ip), vehicle: saline", "value": "227 % of control and 215 % of control"}, {"measurement": "T/C", "setting": "dose: 1.3 mg/kg/injection, schedule: Q01DX009 (ip), vehicle: clinical formulation", "value": "231 % of control"}, {"measurement": "T/C", "setting": "dose: 1.5 mg/kg/injection, schedule: Q01DX010 (ip), vehicle: saline", "value": "210 % of control"}, {"measurement": "T/C", "setting": "dose: 1.56 mg/kg/injection, schedule: Q01DX009 (ip), vehicle: water", "value": "157 % of control and 196 % of control"}, {"measurement": "T/C", "setting": "dose: 1.56 mg/kg/injection, schedule: Q04DX002 (ip), vehicle: saline", "value": "209 % of control"}, {"measurement": "T/C", "setting": "dose: 1.7 mg/kg/injection, schedule: Q04DX003 (ip), vehicle: saline", "value": "225 % of control"}, {"measurement": "T/C", "setting": "dose: 1.7 mg/kg/injection, schedule: Q## X010 (ip), vehicle: saline", "value": "165 % of control"}, {"measurement": "T/C", "setting": "dose: 1.7 mg/kg/injection, schedule: Q## X020 (ip), vehicle: saline", "value": "180 % of control"}, {"measurement": "T/C", "setting": "dose: 1.8 mg/kg/injection, schedule: Q01DX009 (ip), vehicle: water", "value": "161 % of control"}, {"measurement": "T/C", "setting": "dose: 2.0 mg/kg/injection, schedule: Q01DX009 (ip), vehicle: clinical formulation", "value": "257 % of control"}, {"measurement": "T/C", "setting": "dose: 2.0 mg/kg/injection, schedule: Q01DX010 (ip), vehicle: clinical formulation", "value": "172 % of control"}, {"measurement": "T/C", "setting": "dose: 2.0 mg/kg/injection, schedule: Q01DX010 (ip), vehicle: water", "value": "95 % of control"}, {"measurement": "T/C", "setting": "dose: 2.0 mg/kg/injection, schedule: Q03HX008 (ip), vehicle: water", "value": "95 % of control"}, {"measurement": "T/C", "setting": "dose: 2.0 mg/kg/injection, schedule: Q06HX004 (ip), vehicle: water", "value": "195 % of control"}, {"measurement": "T/C", "setting": "dose: 2.5 mg/kg/injection, schedule: Q01DX001 (ip), vehicle: saline", "value": "109 % of control and 215 % of control"}, {"measurement": "T/C", "setting": "dose: 2.5 mg/kg/injection, schedule: Q01DX009 (ip), vehicle: water", "value": "97 % of control"}, {"measurement": "T/C", "setting": "dose: 2.9 mg/kg/injection, schedule: Q04DX003 (ip), vehicle: saline", "value": "200 % of control"}, {"measurement": "T/C", "setting": "dose: 3.0 mg/kg/injection, schedule: Q01DX009 (ip), vehicle: clinical formulation", "value": "157 % of control"}, {"measurement": "T/C", "setting": "dose: 3.0 mg/kg/injection, schedule: Q01DX009 (ip), vehicle: water", "value": "173 % of control"}, {"measurement": "T/C", "setting": "dose: 3.0 mg/kg/injection, schedule: Q01DX010 (ip), vehicle: saline", "value": "189 % of control"}, {"measurement": "T/C", "setting": "dose: 3.13 mg/kg/injection, schedule: Q01DX009 (ip), vehicle: water", "value": "90 % of control"}, {"measurement": "T/C", "setting": "dose: 3.13 mg/kg/injection, schedule: Q04DX002 (ip), vehicle: saline", "value": "169 % of control and 181 % of control"}, {"measurement": "T/C", "setting": "dose: 4.0 mg/kg/injection, schedule: Q01DX010 (ip), vehicle: clinical formulation", "value": "104 % of control"}, {"measurement": "T/C", "setting": "dose: 4.0 mg/kg/injection, schedule: Q01DX010 (ip), vehicle: water", "value": "90 % of control"}, {"measurement": "T/C", "setting": "dose: 4.5 mg/kg/injection, schedule: Q01DX009 (ip), vehicle: clinical formulation", "value": "100 % of control"}, {"measurement": "T/C", "setting": "dose: 5.0 mg/kg/injection, schedule: Q01DX010 (ip), vehicle: saline", "value": "120 % of control"}, {"measurement": "T/C", "setting": "dose: 6.25 mg/kg/injection, schedule: Q04DX002 (ip), vehicle: saline", "value": "100 % of control"}, {"measurement": "T/C", "setting": "dose: 13.33 mg/kg/injection, schedule: Q04DX003 (ip), vehicle: water", "value": "100 % of control and 207 % of control"}, {"measurement": "T/C", "setting": "dose: 16.0 mg/kg/injection, schedule: Q04DX009 (ip), vehicle: water", "value": "96 % of control"}, {"measurement": "T/C", "setting": "dose: 78.0 micrograms/kg/injection, schedule: Q01DX010 (ip), vehicle: saline", "value": "165 % of control"}, {"measurement": "T/C", "setting": "dose: 125.0 micrograms/kg/injection, schedule: Q01DX010 (ip), vehicle: clinical formulation", "value": "150 % of control"}, {"measurement": "T/C", "setting": "dose: 156.0 micrograms/kg/injection, schedule: Q01DX010 (ip), vehicle: saline", "value": "185 % of control"}, {"measurement": "T/C", "setting": "dose: 250.0 micrograms/kg/injection, schedule: Q01DX010 (ip), vehicle: clinical formulation", "value": "183 % of control"}, {"measurement": "T/C", "setting": "dose: 313.0 micrograms/kg/injection, schedule: Q01DX010 (ip), vehicle: saline", "value": "185 % of control"}, {"measurement": "T/C", "setting": "dose: 500.0 micrograms/kg/injection, schedule: Q01DX010 (ip), vehicle: clinical formulation", "value": "195 % of control"}, {"measurement": "T/C", "setting": "dose: 625.0 micrograms/kg/injection, schedule: Q01DX010 (ip), vehicle: saline", "value": "200 % of control"}, {"measurement": "T/C", "setting": "dose: 1300.0 micrograms/kg/injection, schedule: Q04DX003 (ip), vehicle: water", "value": "174 % of control"}, {"measurement": "T/C", "setting": "dose: 2160.0 micrograms/kg/injection, schedule: Q04DX003 (ip), vehicle: water", "value": "162 % of control"}, {"measurement": "T/C", "setting": "dose: 3600.0 micrograms/kg/injection, schedule: Q04DX003 (ip), vehicle: water", "value": "117 % of control"}]}]}
